From ChEMBL document CHEMBL1201862, “PubChem BioAssay data set” (2004)
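96-well plates; 48 h exposure; 5 concentrations. Endpoints by linear interpolation between flanking doses. Not reached: highest tested concentration assigned. GI50: concentration for 50% inhibition of growth.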 Active and inactive are the calls of the source. No stated cut-off is given here; in the data, active = GI50 up to about 1.1 µM and inactive = higher.

Experiments:
Assay in all cases: NCI-60 cell line screen, 48 h
[1] = system: A549
[2] = system: CCRF-CEM
[3] = system: COLO 205
[4] = system: HCT-116
[5] = system: HT-29
[6] = system: Hs-578T
[7] = system: KM12
[8] = system: LOX IMVI
[9] = system: M14
[10] = system: NCI-H460
[11] = system: OVCAR-4
[12] = system: OVCAR-5
[13] = system: OVCAR-8
[14] = system: RXF 393
[15] = system: T47D
[16] = system: UACC-257
[17] = system: SF-539

Measured: GI50

CCOC(=O)C1(C#N)C(C#N)(C#N)C1(C#N)C#N
inactive: [1] > 100 µM | [2] > 100 µM | [3] > 100 µM | [4] > 100 µM | [5] > 100 µM | [6] > 100 µM | [7] > 100 µM | [8] > 100 µM | [9] > 100 µM | [10] > 100 µM | [11] > 100 µM | [12] > 100 µM | [13] > 100 µM | [14] > 100 µM | [15] > 100 µM | [16] > 100 µM

CC1=NNC(=O)C1C1CC(c2c[nH]c3ccccc23)=NNC1=S (stereo unspecified)
inactive: [1] > 100 µM | [2] 28.6 µM | [3] 72.1 µM | [4] > 100 µM | [5] > 100 µM | [6] > 100 µM | [7] 29.6 µM | [9] > 100 µM | [10] 68.5 µM | [12] > 100 µM | [13] > 100 µM | [14] > 100 µM | [17] > 100 µM | [15] 82.2 µM | [16] > 100 µM

CC1(C)[C@@H](Cn2cnc3c(N)ncnc32)CC[C@@]1(C)CO
inactive: [1] > 100 µM | [2] 51.9 µM | [3] 71.9 µM | [4] 44.9 µM | [5] 39.4 µM | [6] > 100 µM | [7] 27.4 µM | [8] > 100 µM | [9] > 100 µM | [10] > 100 µM | [11] > 100 µM | [12] 83.4 µM | [13] > 100 µM | [14] > 100 µM | [15] > 100 µM | [16] 67.1 µM

CCn1c(=O)c2c3cc(OC(C)=O)ccc3oc2c2ccc(OC(C)=O)cc21
inactive: [1] 43.9 µM | [2] 17.2 µM | [3] 20.7 µM | [4] 32.2 µM | [5] 37.3 µM | [6] 11.1 µM | [7] 40.1 µM | [9] 45.9 µM | [10] 21.8 µM | [11] 36.9 µM | [13] 30.8 µM | [14] 37.2 µM | [17] 27.5 µM | [15] 20.2 µM | [16] 55.1 µM

COC(=O)c1c2c(cc3c1CC1(Cc4cc5c(c(C(C)=O)c4C1)CCCC5)C3)CCCC2 (stereo unspecified)
inactive: [1] > 100 µM | [2] 29.2 µM | [3] > 100 µM | [4] 60 µM | [5] 48.8 µM | [6] > 100 µM | [7] > 100 µM | [8] > 100 µM | [9] > 100 µM | [11] > 100 µM | [12] > 100 µM | [13] > 100 µM | [14] > 100 µM | [17] > 100 µM | [15] > 100 µM | [16] 56 µM

CC(C)Cc1c(C#N)c(C#N)c(N)n1Cc1ccccc1
inactive: [1] > 100 µM | [2] > 100 µM | [3] > 100 µM | [4] > 100 µM | [5] > 100 µM | [6] > 100 µM | [7] > 100 µM | [8] > 100 µM | [9] > 100 µM | [11] > 100 µM | [12] > 100 µM | [13] > 100 µM | [14] > 100 µM | [17] > 100 µM | [15] > 100 µM | [16] > 100 µM

OC(C#CCN1CCCC1)(c1ccccc1)c1ccccc1Cl (stereo unspecified)
inactive: [1] 33.4 µM | [2] 33.6 µM | [3] 12.5 µM | [4] 30.1 µM | [5] 16.5 µM | [6] 31 µM | [7] 27.5 µM | [8] 18.7 µM | [10] 20.2 µM | [11] 31 µM | [12] > 100 µM | [13] 33.8 µM | [14] 46.8 µM | [17] 26.5 µM | [15] 28.6 µM | [16] 20.7 µM

c1ccc(/N=C2\c3ccccc3CN2c2ccccc2)cc1
inactive: [1] > 100 µM | [2] > 100 µM | [3] > 100 µM | [4] > 100 µM | [5] > 100 µM | [6] > 100 µM | [7] > 100 µM | [8] > 100 µM | [9] > 100 µM | [10] > 100 µM | [11] > 100 µM | [13] > 100 µM | [14] > 100 µM | [17] > 100 µM | [15] 80.2 µM | [16] > 100 µM
